Data set [1] relates to Chymotrypsin. Description: Inhibition of enzymatic degradation of a model GLP-1 (FRET substrate) by chymotrypsin. The format is biochemical. The settings on record: for EC50: read-out: EC50 Chymotrypsin (0.001 mg/ml), 0.001 mg/ml chymotrypsin, 37° C., ± standard error if at least 3 measurements. A digest of the protocol:
(§1)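 Initial-rate slopes of fluorescence rise (320 nm ex, 405 nm em), fitted over the linear early phase and averaged from duplicates, were plotted against inhibitor concentration and fitted logistically to give EC50. Reactions ran at 37° C in Dulbecco's PBS, with MCA/DNP GLP-1 FRET substrate added as 10 μl of 100 μM stock.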

The nature of data set [2]: Stability of N-terminally acylated peptides or oligopeptides in GI juice. Format: in vitro ADME. The settings on record: GI juice (jejunum extract); degradation of the compound itself in jejunum extract from rat; read-out: t 1/2 in rat GI juice. Here is the method:
96 well plates were coated by incubating with 0.4% Bovine serum albumin (BSA) solution for minimum of 60 min. To each well, 210 μl of buffer (Hank's balanced salt solution-4-(2-hydroxyethyl)-1-piperazineethanesulfonic acid (HBSS-HEPES) buffer) with 0.005% Tween 20 and 0.001% BSA, pH 6.5 precipitated with 3 vol. cold 96% ethanol (EtOH) w. 1% TFA), 30 μl of a substrate (100 μM insulin analogue or GLP-1 analogue in buffer) and 30 μl of N-terminally acylated peptide or oligopeptide of the invention (10 mM) were added. The plates were pre-incubated (before adding GI juice) for 60 min at 37° C. After addition of 30 μl of GI juice (10-times diluted in buffer), the plates were incubated for 60 min/37° C. on shaker. Samples (40 μl) were taken at 0, 5, 10, 20, 30 and 60 min, stopped with 3 vol. cold 96% EtOH w. 1% TFA and spun down in plates (4500 rpm for 10 min). Samples were diluted 5 times with the buffer prior to LC-MS analysis. Standard samples (0.1, 0.5, 1.0, 5.0, 10.0 μM) were prepared and treated as the samples. Standard curve was analysed both at the beginning and the end of the sequence. Two replicates of each tested conditions were included. Ion suppression was assessed by analyzing a standard at 1 μM and at 10 μM with 1 mM inhibitor present. Intact insulin or GLP-1 analoues were determined at each sample. The results were plotted against the incubation time. Half-lives of the insulin or GLP-1 analogues were determined by nonlinear regression of the results using, for example Graph Pad Prism. The half-lives were expressed relative to the half-live of the insulin or GLP-1 analogue without inhibitor present by dividing the half-lives obtained in the presence of inhibitor with those obtained in the absence of inhibitors. GI juice was prepared from male Sprague Dawley rats (200-250 g) by excising approximately 20 cm piece of mid jejunum and rinsing the inside with 2.5 ml 0.9% sodium chloride solution. The sodium chloride solution was collected in a centrifuge tube, pooled from all rats (20) and centrifuged at 4500 rpm./10 min/4° C. The supernatant was aliquoted in tubes and stored at −80° C.
Degradation of the N-terminally fatty acid modified peptide or oligopeptide of the invention themselves in jejunum extract from rat (GI juice) and determination of half-lives, was measured as described above (example 200).

The next data set concerns Trypsin. Description: Inhibition of enzymatic degradation of a model GLP-1 (FRET substrate) by trypsin. The settings on record: for EC50: read-out: EC50 Trypsin (0.001 mg/ml), 0.001 mg/ml trypsin, 37° C. Format: biochemical. A digest of the protocol: as §1
Data set [3] in a line: Hydrophobicity: retention time during reverse phase HPLC. The format is physicochemical. The following applies: Acquity CSH C18; pH 7.2 buffer/CH3CN gradient; 40° C. From the text:
The retention time (RT) during reverse phase HPLC was taken as a measure of hydrophobicity of an N-terminally modified peptide or oligopeptide of the invention, where the connection is: The longer the RT, the more hydrophobic N-terminally modified peptide or oligopeptide. The following running conditions were applied during HPLC analysis:
Buffer B: 70% (v/v) aq. CH3CN

The target of data set [4] is Chymotrypsin. Description: Inhibition of enzymatic degradation of a chromogenic substrate (Example 202). Format: biochemical. The settings on record: substrate N-succinyl-Ala-Ala-Pro-Phe-p-Nitroanilide. From the text: The use of chromogenic substrates to monitor activity of proteolytic enzymes is known in the field (for example DelMar, E. G., et al., Anal. Biochem., 99, 316-320, (1979)). For example, N-succinyl-Ala-Ala-Pro-Phe-p-Nitroanilide is commonly used substrate for measuring chymotrypsin activity. Enzymatic cleavage of 4-nitroanilide substrates yields 4-nitroaniline (yellow color under alkaline conditions).
An assay following the increase in absorbance at 395 nm as a function of time was established in 96 well format using Varioskan Flash Multimode Meter (Thermo Scientific). Each well contained 70 μl of Dulbecco's phosphate buffer saline (Invitrogen catalogue #14190-094), 10 μl of N-succinyl-Ala-Ala-Pro-Phe-p-Nitroanilide (Sigma cat# S 7388) in DMSO (different concentrations were used in order to obtain the inhibition constant), 10 μl of N-terminally acylated peptide or oligopeptide of the invention in varying concentration and 10 μl of a stock solution of an enzyme (chymotrypsin, trypsin, elastase, etc.). The incubations were performed at 37° C. Absorbance at 395 nm was measured immediately after addition of the enzyme to the 96 well plate and also every minute for the next 80 minutes. The concentration of the enzyme was optimized to allow determination of slopes for the time course of initial absorbance increase with and without added inhibitors. The slopes were determined by linear regression of the linear part of the fluorescence trace (for example, the first 10 min of the reaction). Each assay was performed in duplicate and average of the two traces was included in the calculations. The relative effect of N-terminally acylated peptide or oligopeptides of the invention on enzymatic degradation of N-succinyl-Ala-Ala-Pro-Phe-p-Nitroanilide was obtained by comparison of the slopes achieved by the same concentration of the N-terminally acylated peptide or oligopeptides. […] This was done by plotting the slopes achieved with different concentrations of the N-terminally acylated peptide or oligopeptides of the invention as a function of their concentrations and fitting the experimental results using, for example, sigmoidal logistic regression (2 parameters, Sigma Plot v 11). Inhibition constants for the interaction between the N-terminally acylated peptide or oligopeptides of the invention and proteolytic enzymes were also obtained by performing the assay described above with varying concentrations of the inhibitor and substrate and analyzing the results, for example, by double reciprocal transformation as known to the person skilled in the art and described for example in Hubalek, F. et al., J. Med. Chem. 47, 1760-1766 (2004).

Starred links: 1 amine or outer side, 2 acyl side, 3 side chain; linkers in the order of their positions; H or OH if unused. Non-standard residues stand in square brackets, D forms with d. Residues, ends and D or L forms follow the SMILES beside them. *: point of attachment. γGlu = O=C(O)[C@H](CCC(=O)[*:2])N[*:1]; Myristoyl = CCCCCCCCCCCCCC(=O)*; Decanoyl = CCCCCCCCCC(=O)*

The results in this text go back to US20150038435A1, “N-TERMINALLY MODIFIED OLIGOPEPTIDES AND USES THEREOF” (Novo Nordisk A/S, priority 2012, published 2015).

With `CCCCCCCCCCCCCC(=O)N[C@H](C)C(=O)N[C@H](C)C(=O)N1CCC[C@@H]1C(=O)N[C@H](Cc1ccccc1)C(=O)O` [Example 2, N-tetradecanoyl-DAla-DAla-DPro-DPhe-OH] (Myristoyl-[dA][dA][dP][dF]-OH), the “Slope of the initial increase in fluorescence obtained during incubation with 0.001 mg/ml Chymotrypsin” value in the data set with Chymotrypsin [1] (compound 1 mM) worked out at 0.05. The EC50 is 85 µM in the data set on Chymotrypsin [1] and 112 µM with Trypsin. For the same compound, in data set [2], the half-life was found to be 10.2 h. Also, the “Slope of the initial increase in fluorescence obtained during incubation with 0.001 mg/ml Trypsin” value in the data set with Trypsin (compound 1 mM) worked out at 0.15. In data set [3], the “RT (retention time during reverse phase HPLC as a measure of hydrophobicity)” value (shortened to “RT”) worked out at 9.74 min.
For `CCCCCCCCCCCCCC(=O)N[C@@H](CCC(=O)N[C@@H](C)C(=O)N1CCC[C@H]1C(=O)N[C@@H](Cc1ccccc1)C(=O)O)C(=O)O` [Example 23, N-tetradecanoyl-γGlu-Ala-Pro-Phe-OH] ({Myristoyl-γGlu}-Ala-Pro-Phe-OH), the EC50 was 144 µM with Chymotrypsin [1] and 44 µM in the data set on Trypsin. The half-life in data set [2] came to 0.0733 h. For the same compound, the “RT” value in data set [3] is 5.29 min.
Take “N-decanoyl-Ala-Ala-Pro-Phe-OH (Decanoyl-AAPF-OH) [Example 33]”: at Chymotrypsin [4], the affinity corresponds to a Ki of 850 µM. For the same compound, in data set [3], the “RT” value is 4.93 min.
